{"source": "patent US20150087687A1", "about": "(priority 2012, published 2015)", "key": {"[1]": {"test_system": "Jurkat cells", "details": "inducing phosphorylation of c-Myb; cited from earlier work"}, "[2]": {"test_system": "uridine glucuronyltransferases (UGT)", "test": "metabolism by uridine glucuronyltransferases", "type": "in vitro ADME", "details": "direct conjugation, without initial cytochrome P450 oxidation; more polar metabolites"}, "[3]": {"test_system": "Lewis lung sarcoma", "details": "mouse, in vivo; cited from earlier work"}, "[4]": {"details": "cited from earlier work"}, "[5]": {"target": "cytochrome P450 2C8 (Homo sapiens, UniProt P10632)", "sequence (P10632 whole entry)": "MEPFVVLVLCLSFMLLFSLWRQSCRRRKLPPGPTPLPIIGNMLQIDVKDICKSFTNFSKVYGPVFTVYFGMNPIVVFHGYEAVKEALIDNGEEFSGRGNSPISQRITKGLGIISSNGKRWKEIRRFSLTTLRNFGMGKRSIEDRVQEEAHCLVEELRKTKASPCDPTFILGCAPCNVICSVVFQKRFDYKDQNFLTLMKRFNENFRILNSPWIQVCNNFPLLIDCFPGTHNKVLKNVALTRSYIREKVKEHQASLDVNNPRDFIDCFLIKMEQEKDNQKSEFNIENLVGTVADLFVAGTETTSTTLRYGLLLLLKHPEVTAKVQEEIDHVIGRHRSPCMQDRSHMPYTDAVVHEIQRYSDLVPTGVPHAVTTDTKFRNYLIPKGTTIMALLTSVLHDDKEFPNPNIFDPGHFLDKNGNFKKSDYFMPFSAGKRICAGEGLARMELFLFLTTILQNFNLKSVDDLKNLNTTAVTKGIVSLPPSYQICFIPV", "test": "inhibition of cytochrome P450 2C8", "type": "in vitro ADME"}, "[6]": {"target": "T1, cytochrome P450 1A2 (Homo sapiens, UniProt P05177)", "T1 sequence (P05177 whole entry)": "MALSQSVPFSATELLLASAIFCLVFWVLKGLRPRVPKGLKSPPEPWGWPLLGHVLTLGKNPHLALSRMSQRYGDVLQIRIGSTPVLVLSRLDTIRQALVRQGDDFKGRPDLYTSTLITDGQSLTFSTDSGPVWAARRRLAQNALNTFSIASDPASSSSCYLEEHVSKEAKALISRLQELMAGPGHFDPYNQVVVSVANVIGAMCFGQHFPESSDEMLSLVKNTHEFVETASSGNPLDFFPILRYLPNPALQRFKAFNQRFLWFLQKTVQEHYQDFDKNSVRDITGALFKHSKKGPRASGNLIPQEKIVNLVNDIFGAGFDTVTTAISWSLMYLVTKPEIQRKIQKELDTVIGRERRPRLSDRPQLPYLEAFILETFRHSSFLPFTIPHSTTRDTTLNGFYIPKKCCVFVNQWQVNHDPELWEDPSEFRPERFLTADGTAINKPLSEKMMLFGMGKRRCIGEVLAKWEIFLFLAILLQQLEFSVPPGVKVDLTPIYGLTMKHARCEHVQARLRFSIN", "test": "metabolism by cytochrome P450 1A2", "type": "in vitro ADME", "details": "by oxidation"}, "[7]": {"target": "ERBB3 (Homo sapiens, UniProt P21860)", "sequence (P21860 20-1342, species assumed)": "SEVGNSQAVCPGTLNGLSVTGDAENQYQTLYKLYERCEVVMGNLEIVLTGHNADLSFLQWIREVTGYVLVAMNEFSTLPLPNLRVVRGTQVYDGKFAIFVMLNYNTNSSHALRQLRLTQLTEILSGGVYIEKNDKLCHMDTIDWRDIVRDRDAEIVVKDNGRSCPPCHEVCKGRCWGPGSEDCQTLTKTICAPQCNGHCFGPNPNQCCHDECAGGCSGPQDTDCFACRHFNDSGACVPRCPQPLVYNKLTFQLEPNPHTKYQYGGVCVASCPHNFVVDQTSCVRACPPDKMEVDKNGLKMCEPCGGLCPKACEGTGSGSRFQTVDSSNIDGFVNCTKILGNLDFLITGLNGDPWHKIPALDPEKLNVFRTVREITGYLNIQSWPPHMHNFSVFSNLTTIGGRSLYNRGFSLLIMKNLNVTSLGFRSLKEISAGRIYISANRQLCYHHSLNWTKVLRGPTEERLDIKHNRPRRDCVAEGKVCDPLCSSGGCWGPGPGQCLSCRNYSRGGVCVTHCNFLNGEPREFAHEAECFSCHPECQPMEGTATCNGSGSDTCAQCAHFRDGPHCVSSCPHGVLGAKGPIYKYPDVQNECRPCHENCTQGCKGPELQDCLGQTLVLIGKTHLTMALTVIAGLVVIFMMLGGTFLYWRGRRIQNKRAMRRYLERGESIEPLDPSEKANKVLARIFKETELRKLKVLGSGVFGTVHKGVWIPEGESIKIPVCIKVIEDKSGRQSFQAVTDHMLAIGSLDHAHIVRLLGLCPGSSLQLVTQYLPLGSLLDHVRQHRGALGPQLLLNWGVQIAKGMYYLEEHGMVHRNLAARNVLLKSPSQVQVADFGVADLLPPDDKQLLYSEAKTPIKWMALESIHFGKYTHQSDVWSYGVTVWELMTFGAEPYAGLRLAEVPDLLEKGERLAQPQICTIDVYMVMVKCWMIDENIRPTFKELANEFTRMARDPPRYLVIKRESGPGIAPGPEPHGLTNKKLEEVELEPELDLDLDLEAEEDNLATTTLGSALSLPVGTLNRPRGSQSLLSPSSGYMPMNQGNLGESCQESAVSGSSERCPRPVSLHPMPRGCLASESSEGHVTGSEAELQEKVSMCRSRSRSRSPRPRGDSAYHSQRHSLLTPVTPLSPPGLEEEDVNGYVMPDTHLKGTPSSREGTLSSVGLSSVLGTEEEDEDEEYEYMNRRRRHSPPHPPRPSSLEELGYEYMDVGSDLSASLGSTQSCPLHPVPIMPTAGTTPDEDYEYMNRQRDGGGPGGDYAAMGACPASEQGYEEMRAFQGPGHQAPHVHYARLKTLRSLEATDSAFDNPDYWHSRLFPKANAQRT", "test": "targeting of kinases (FIG. 4): ERBB3", "type": "binding"}, "[8]": {"details": "cited from earlier work", "remark": "listed apart in the source"}, "[9]": {"test_system": "primary AML", "details": "cited from earlier work"}, "[10]": {"test_system": "HT-29 colorectal cell lines", "details": "cited from earlier work"}, "[11]": {"test_system": "HUVEC", "details": "antiangiogenic effects; cited from earlier work"}, "[12]": {"test_system": "HL-60 cells", "details": "cited from earlier work"}, "[13]": {"test_system": "CD11b", "details": "promoting myeloid differentiation; cited from earlier work"}, "[14]": {"details": "cited from earlier work", "remark": "listed apart in the source"}, "[15]": {"test_system": "Walker 256 carcino-sarcoma", "details": "in vivo; cited from earlier work"}, "[16]": {"target": "NEK9 (Homo sapiens, UniProt Q8TD19)", "sequence (Q8TD19 whole entry, species assumed)": "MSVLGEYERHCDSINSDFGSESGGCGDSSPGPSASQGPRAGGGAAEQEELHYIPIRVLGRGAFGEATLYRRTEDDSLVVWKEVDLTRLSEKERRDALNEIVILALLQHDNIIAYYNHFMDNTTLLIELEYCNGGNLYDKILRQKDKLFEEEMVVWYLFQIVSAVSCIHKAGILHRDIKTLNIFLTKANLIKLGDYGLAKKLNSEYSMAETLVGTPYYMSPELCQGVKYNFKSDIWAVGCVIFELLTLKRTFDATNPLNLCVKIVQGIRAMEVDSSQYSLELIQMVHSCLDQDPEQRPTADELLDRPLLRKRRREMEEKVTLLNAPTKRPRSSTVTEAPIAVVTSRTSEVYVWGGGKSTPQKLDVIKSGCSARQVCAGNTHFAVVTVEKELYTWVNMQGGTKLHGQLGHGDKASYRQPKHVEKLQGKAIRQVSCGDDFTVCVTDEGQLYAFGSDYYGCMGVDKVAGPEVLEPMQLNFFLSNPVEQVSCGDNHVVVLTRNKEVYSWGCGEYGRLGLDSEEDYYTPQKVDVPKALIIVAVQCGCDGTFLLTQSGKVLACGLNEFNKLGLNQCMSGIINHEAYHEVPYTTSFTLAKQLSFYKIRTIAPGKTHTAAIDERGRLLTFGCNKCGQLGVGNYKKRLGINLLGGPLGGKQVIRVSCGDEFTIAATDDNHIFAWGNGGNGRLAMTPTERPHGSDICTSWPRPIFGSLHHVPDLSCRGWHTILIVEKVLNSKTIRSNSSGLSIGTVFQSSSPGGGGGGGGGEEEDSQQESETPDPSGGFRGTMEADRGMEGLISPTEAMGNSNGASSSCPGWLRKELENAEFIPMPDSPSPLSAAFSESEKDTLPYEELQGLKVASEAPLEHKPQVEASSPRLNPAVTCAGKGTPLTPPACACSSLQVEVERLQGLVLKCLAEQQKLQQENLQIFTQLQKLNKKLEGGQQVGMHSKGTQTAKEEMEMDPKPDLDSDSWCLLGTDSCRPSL", "test": "targeting of kinases (FIG. 4): NEK9", "type": "binding"}, "[17]": {"test_system": "chronic myelogenous leukemia (CML)", "details": "cited from earlier work"}, "[18]": {"test_system": "VEGF", "details": "antiangiogenic effects; cited from earlier work"}, "[19]": {"test_system": "mitochondria", "details": "effects on mitochondria; cited from earlier work"}, "[20]": {"test_system": "cell lines and primary cancer cells", "details": "cited from earlier work"}, "[21]": {"test_system": "ECV304", "details": "cited from earlier work"}, "[22]": {"test_system": "ECV304", "details": "antiangiogenic effects; cited from earlier work"}, "[23]": {"test_system": "HL-60", "details": "AML; cited from earlier work"}, "[24]": {"test_system": "HUVEC", "details": "cited from earlier work"}, "[25]": {"details": "cited from earlier work", "remark": "listed apart in the source"}, "[26]": {"test_system": "negative cell cycle regulators p21 and p27", "details": "induces cell cycle arrest; cited from earlier work"}, "[27]": {"test_system": "Bcl-2", "details": "induces apoptosis; cited from earlier work"}, "[28]": {"test_system": "hepatic cytochrome P450 (CYP)", "details": "cited from earlier work"}, "[29]": {"details": "rats; cited from earlier work"}, "[30]": {"test_system": "HT-29 colorectal xenografts", "details": "mouse, in vivo; cited from earlier work"}, "[31]": {"test_system": "microtubule assembly", "details": "cited from earlier work"}, "[32]": {"target": "STK25 (Homo sapiens, UniProt O00506)", "sequence (O00506 whole entry, species assumed)": "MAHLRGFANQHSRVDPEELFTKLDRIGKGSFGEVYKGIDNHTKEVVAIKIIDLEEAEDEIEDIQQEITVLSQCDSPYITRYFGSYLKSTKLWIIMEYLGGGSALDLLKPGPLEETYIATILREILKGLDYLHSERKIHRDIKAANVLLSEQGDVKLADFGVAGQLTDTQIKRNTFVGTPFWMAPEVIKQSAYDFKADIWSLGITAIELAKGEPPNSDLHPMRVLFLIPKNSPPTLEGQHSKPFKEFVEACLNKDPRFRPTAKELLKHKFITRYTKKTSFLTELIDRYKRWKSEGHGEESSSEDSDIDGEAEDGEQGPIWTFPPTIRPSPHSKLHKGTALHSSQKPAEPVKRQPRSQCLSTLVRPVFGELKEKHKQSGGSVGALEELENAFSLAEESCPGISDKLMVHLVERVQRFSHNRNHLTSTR", "test": "targeting of kinases (FIG. 4): STK25", "type": "binding"}, "[33]": {"test_system": "primary AML cells", "details": "cited from earlier work"}, "[34]": {"test_system": "AML NOD/SCID model", "details": "cited from earlier work"}, "[35]": {"target": "cytochrome P450 2C19 (Homo sapiens, UniProt P33261)", "sequence (P33261 whole entry)": "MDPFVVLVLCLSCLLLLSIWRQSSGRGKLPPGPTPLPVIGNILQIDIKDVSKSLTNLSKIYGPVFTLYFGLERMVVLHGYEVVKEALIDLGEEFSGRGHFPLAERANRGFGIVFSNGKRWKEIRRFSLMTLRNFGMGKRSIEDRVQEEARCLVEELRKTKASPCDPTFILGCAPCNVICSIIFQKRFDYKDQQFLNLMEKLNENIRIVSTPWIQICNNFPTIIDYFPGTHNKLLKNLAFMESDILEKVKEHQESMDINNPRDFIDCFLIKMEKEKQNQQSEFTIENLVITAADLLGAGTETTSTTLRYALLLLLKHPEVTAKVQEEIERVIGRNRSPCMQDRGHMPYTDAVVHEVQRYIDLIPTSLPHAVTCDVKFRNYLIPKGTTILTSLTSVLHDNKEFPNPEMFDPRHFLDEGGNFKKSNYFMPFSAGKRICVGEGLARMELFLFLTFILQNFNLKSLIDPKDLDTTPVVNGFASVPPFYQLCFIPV", "test": "metabolism by cytochrome P450 2C19", "type": "in vitro ADME", "details": "by oxidation"}, "[36]": {"target": "glycogen synthase kinase-3β (GSK-3β) (Homo sapiens, UniProt P49841)", "sequence (P49841 whole entry, species assumed)": "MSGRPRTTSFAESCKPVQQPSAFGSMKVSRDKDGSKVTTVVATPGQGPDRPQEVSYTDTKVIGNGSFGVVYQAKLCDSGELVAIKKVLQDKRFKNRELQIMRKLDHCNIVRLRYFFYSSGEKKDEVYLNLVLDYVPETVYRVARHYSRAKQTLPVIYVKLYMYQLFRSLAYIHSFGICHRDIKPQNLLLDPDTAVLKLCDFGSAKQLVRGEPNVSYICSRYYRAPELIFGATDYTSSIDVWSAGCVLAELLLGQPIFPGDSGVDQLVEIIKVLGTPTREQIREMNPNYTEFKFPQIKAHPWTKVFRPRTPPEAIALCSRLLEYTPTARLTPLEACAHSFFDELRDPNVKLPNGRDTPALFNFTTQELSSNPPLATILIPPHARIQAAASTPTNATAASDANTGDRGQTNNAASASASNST", "details": "concentration at which inhibition is stated; cited from earlier work"}, "[37]": {"test_system": "AML cells", "details": "AML cells (DKO insensitive to chemotherapy); cited from earlier work"}, "[38]": {"test_system": "VCAM-1", "details": "antiangiogenic effects; cited from earlier work"}, "[39]": {"test_system": "K562 cells", "details": "cited from earlier work"}, "[40]": {"test_system": "murine cancer models", "details": "mouse, in vivo; cited from earlier work"}, "[41]": {"details": "cited from earlier work", "remark": "listed apart in the source"}, "[42]": {"details": "rat; cited from earlier work"}, "[43]": {"test_system": "U937", "details": "AML; cited from earlier work"}, "[44]": {"test_system": "W256 cells", "details": "cited from earlier work"}, "[45]": {"test_system": "HL-60 myeloid cells", "details": "cited from earlier work"}, "[46]": {"test_system": "K562", "details": "CML; cited from earlier work"}, "[47]": {"test_system": "K562", "details": "cited from earlier work"}, "[48]": {"test_system": "malignant cell lines, particularly AML cell lines", "test": "viability of cancer cell lines (Example 2)", "type": "cell-based", "details": "0.1-100 μM, 24 or 48 hours, FIG. 1-3", "protocol": "Viability at 48 hours is shown by (♦); viability at 24 hours is shown by (▪)."}, "[49]": {"test_system": "AML cell lines", "details": "cited from earlier work"}, "[50]": {"target": "T1, cytochrome P450 1A2", "test": "inhibition of cytochrome P450 1A2", "type": "in vitro ADME"}, "[51]": {"test_system": "human myeloblastic leukemic cells", "details": "cited from earlier work"}, "[52]": {"test_system": "NB4", "details": "AML; cited from earlier work"}}, "note": "Read-outs that look alike come from different tables or passages of the source."}
{"compound": "CN1C(=O)/C(=C2/C(=O)Nc3ccccc32)c2ccccc21", "note": "[meisoindigo, 3-(1,2-dihydro-2-oxo-3H-indol-3-ylidene)-1,3-dihydro-1-methyl-2H-indol-2-one]", "values": [{"measurement": "Ahi-1", "setting": "[1]", "result": "upregulation"}, {"measurement": "metabolized by UGT", "setting": "[2]", "result": "metabolized"}, {"measurement": "efficacy in Lewis lung sarcoma", "setting": "[3]", "result": "effective"}, {"measurement": "mild nausea and vomiting", "setting": "[4]; clinical trials, single agent or in combination with chemotherapy", "result": 30, "unit": "%"}, {"measurement": "cardiac, hepatic, or renal adverse effects", "setting": "[4]; clinical trials", "result": "no cardiac, hepatic, or renal adverse effects"}, {"measurement": "course of nausea and vomiting", "setting": "[4]; clinical trials", "result": "spontaneously disappeared in two weeks"}, {"measurement": "tolerability", "setting": "[4]; several patient populations", "result": "well tolerated"}, {"measurement": "inhibits cytochrome P450 2C8 at", "setting": "[5]", "result": "low micromolar concentrations"}, {"measurement": "metabolized by cytochrome P450 1A2", "setting": "[6]", "result": "metabolized"}, {"measurement": "binding with ERBB3", "setting": "[7]", "result": "significant binding"}, {"measurement": "target organs", "setting": "[8]; dog", "result": "liver and the gastrointestinal tract"}, {"measurement": "well tolerated dose", "setting": "[8]; dogs, p.o. for 6 months", "result": 10, "unit": "mg/kg/day"}, {"measurement": "activity against primary AML", "setting": "[9]", "result": "activity"}, {"measurement": "cell cycle specific effect", "setting": "[10]", "result": "G2/M arrest"}, {"measurement": "tubule formulation in HUVEC", "setting": "[11]", "result": "decreased"}, {"measurement": "c-myc", "setting": "[12]", "result": "decreases"}, {"measurement": "β-catenin", "setting": "[12]", "result": "decreases"}, {"measurement": "CD11b", "setting": "[13]", "result": "upregulation"}, {"measurement": "absorption", "setting": "[14]; in vivo", "result": "rapidly absorbed"}, {"measurement": "distribution", "setting": "[14]; in vivo", "result": "widely distributed in the tissues"}, {"measurement": "excretion", "setting": "[14]; renal and biliary routes", "result": "renal excretion strongly predominating"}, {"measurement": "efficacy in Walker 256 carcino-sarcoma", "setting": "[15]", "result": "effective"}, {"measurement": "binding with NEK9", "setting": "[16]", "result": "strongest binding"}, {"measurement": "complete hematologic response", "setting": "[17]; 50-200 mg/d p.o.", "result": "33 % of patients"}, {"measurement": "partial hematologic response", "setting": "[17]; 50-200 mg/d p.o.", "result": "58 % of patients"}, {"measurement": "reduction of leukocyte count (median)", "setting": "[17]; 50-200 mg/d p.o.", "result": 31, "unit": "days"}, {"measurement": "reduction of splenomegaly (median)", "setting": "[17]; 50-200 mg/d p.o.", "result": 25, "unit": "days"}, {"measurement": "effect with hydroxyurea", "setting": "[17]; combination with hydroxyurea", "result": "synergistic effect"}, {"measurement": "VEGF protection", "setting": "[18]", "result": "decreased"}, {"measurement": "Bax protein expression", "setting": "[19]", "result": "no change"}, {"measurement": "Bcl-2 protein expression", "setting": "[19]", "result": "no change"}, {"measurement": "Bid protein expression", "setting": "[19]", "result": "no change"}, {"measurement": "IC50", "setting": "[20]; cell lines and primary cancer cells", "result": "high-μM concentration range"}, {"measurement": "active against cell lines and primary cancer cells", "setting": "[20]", "result": "active"}, {"measurement": "activity against ECV304", "setting": "[21]", "result": "activity"}, {"measurement": "ECV304 apoptosis", "setting": "[22]", "result": "apoptosis"}, {"measurement": "activity against HL-60", "setting": "[23]", "result": "activity"}, {"measurement": "activity against HUVEC", "setting": "[24]", "result": "activity"}, {"measurement": "water solubility", "setting": "[25]", "result": "water-soluble"}, {"measurement": "p21", "setting": "[26]", "result": "upregulation"}, {"measurement": "p27", "setting": "[26]", "result": "upregulation"}, {"measurement": "Bcl-2", "setting": "[27]", "result": "suppression"}, {"measurement": "sex differences in metabolism", "setting": "[28]", "result": "no sex differences"}, {"measurement": "metabolic routes", "setting": "[28]; hepatic cytochrome P450 (CYP)-mediated", "result": "N-demethylation and mono ring hydroxylation"}, {"measurement": "interspecies differences in metabolism", "setting": "[28]; rats, pigs, and humans", "result": "no major interspecies differences"}, {"measurement": "single dose LD50", "setting": "[29]", "result": 3900, "unit": "mg/kg"}, {"measurement": "efficacy in HT-29 colorectal xenografts", "setting": "[30]", "result": "effective"}, {"measurement": "microtubule assembly", "setting": "[31]", "result": "inhibition"}, {"measurement": "binding with STK25", "setting": "[32]", "result": "significant binding"}, {"measurement": "Bcl-2", "setting": "[33]", "result": "downregulation"}, {"measurement": "p21", "setting": "[33]", "result": "upregulation"}, {"measurement": "p27", "setting": "[33]", "result": "upregulation"}, {"measurement": "spleen size", "setting": "[34]; AML NOD/SCID model", "result": "dose-dependent spleen size reduction"}, {"measurement": "efficacy in AML NOD/SCID model", "setting": "[34]; mouse, in vivo", "result": "effective"}, {"measurement": "metabolized by cytochrome P450 2C19", "setting": "[35]", "result": "metabolized"}, {"measurement": "inhibition of GSK-3β at", "setting": "[36]", "result": "5 to 50", "unit": "nM"}, {"measurement": "Bak", "setting": "[37]", "result": "upregulation"}, {"measurement": "Bax", "setting": "[37]", "result": "upregulation"}, {"measurement": "VCAM-1", "setting": "[38]", "result": "decreased"}, {"measurement": "apoptosis mechanism", "setting": "[39]", "result": "novel caspase-dependent pathway"}, {"measurement": "efficacy in murine cancer models", "setting": "[40]", "result": "effective"}, {"measurement": "human hepatic internal CL (Clint)", "setting": "[41]", "result": "~83", "unit": "mL/mg/kg"}, {"measurement": "target organs", "setting": "[42]", "result": "liver and the gastrointestinal tract"}, {"measurement": "activity against U937", "setting": "[43]", "result": "activity"}, {"measurement": "DNA synthesis", "setting": "[44]", "result": "inhibition"}, {"measurement": "RNA synthesis", "setting": "[44]", "result": "inhibition"}, {"measurement": "cleavage of PARP", "setting": "[45]", "result": "stimulates the cleavage"}, {"measurement": "cleavage of pro-caspase 3", "setting": "[45]", "result": "stimulates the cleavage"}, {"measurement": "cleavage of pro-caspase 8", "setting": "[45]", "result": "stimulates the cleavage"}, {"measurement": "cleavage of pro-caspase 9", "setting": "[45]", "result": "stimulates the cleavage"}, {"measurement": "activity against K562", "setting": "[46]", "result": "activity"}, {"measurement": "c-myc", "setting": "[47]", "result": "not"}, {"measurement": "killing of malignant cell lines", "setting": "[48]", "result": "effective in killing"}, {"measurement": "cell cycle specific effect", "setting": "[49]", "result": "arrest in G(O)/G1"}, {"measurement": "inhibits cytochrome P450 1A2 at", "setting": "[50]", "result": "low micromolar concentrations"}, {"measurement": "c-myb gene expression", "setting": "[51]", "result": "downregulation"}, {"measurement": "differentiation", "setting": "[51]", "result": "promotes differentiation"}, {"measurement": "activity against NB4", "setting": "[52]", "result": "activity"}]}
